≈ marks a conversion by molar mass, not a printed value.
Test system: A. baumannii strain ATCC19606
Test: Minimum inhibitory concentration (MIC) determination, microbroth dilution (CLSI)
Assay type: cell-based
Conditions: Acinetobacter baumannii; A. baumannii ATCC19606; CAMHB; read after 20 hours; >=80% growth inhibition; read-out: ATCC19606 MIC
In short: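 After 20 h at 35±2 °C, MIC taken visually and by OD 600 nm as the lowest concentration giving ≥80% growth inhibition. Bacteria (~5×10^5 CFU/ml) were tested per CLSI microbroth dilution against twofold serial compound dilutions in cation-adjusted Mueller Hinton broth.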

Row | SMILES | MIC [µg/mL]
1 | CCN1C(=O)[C@H](CCCCN)NC(=O)[C@H](CCCN)NCc2ccccc2Sc2ccc(Cl)cc2CNC(=O)[C@@H]1Cc1c[nH]c2ccccc12 [Example 43, (12S,15S,18S)-15-(4-Amino-butyl)-18-(3-amino-propyl)-6-chloro-13-ethyl-12-(1H-indol-3-ylmethyl)-2-thia-10,13,16,19-tetraaza-tricyclo[19.4.0.0*3,8*]pentacosa-1(21),3,5,7,22,24-hexaene-11,14,17-trione] | 1 (≈ 1.39 µM)
2 | CCN1C(=O)[C@H](CCCCN)NC(=O)[C@H](CCCN)NCc2ccccc2Sc2c(C)cccc2CNC(=O)[C@@H]1Cc1c[nH]c2ccccc12 [Example 46, (12S,15S,18S)-15-(4-Amino-butyl)-18-(3-amino-propyl)-13-ethyl-12-(1H-indol-3-ylmethyl)-4-methyl-2-thia-10,13,16,19-tetraaza-tricyclo[19.4.0.0*3,8*]pentacosa-1(21),3,5,7,22,24-hexaene-11,14,17-trione] | 1 (≈ 1.43 µM)
3 | CN1C(=O)[C@H](CCCCN)NC(=O)[C@H](CCCN)NCc2ccccc2Sc2c(Cl)cccc2CNC(=O)[C@@H]1Cc1c[nH]c2ccccc12 [Example 11, (12S,15S,18S)-15-(4-Amino-butyl)-18-(3-amino-propyl)-4-chloro-12-(1H-indol-3-ylmethyl)-13-methyl-2-thia-10,13,16,19-tetraaza-tricyclo[19.4.0.0*3,8*]pentacosa-1(21),3,5,7,22,24-hexaene-11,14,17-trione] | 0.5 (≈ 0.71 µM)
4 | Cc1[nH]c2ccccc2c1C[C@H]1C(=O)NCc2ccccc2Sc2ccccc2CN[C@@H](CCCN)C(=O)N[C@@H](CCCCN)C(=O)N1C [Example 32, (12S,15S,18S)-15-(4-Amino-butyl)-18-(3-amino-propyl)-13-methyl-12-(2-methyl-1H-indol-3-ylmethyl)-2-thia-10,13,16,19-tetraaza-tricyclo[19.4.0.0*3,8*]pentacosa-1(21),3,5,7,22,24-hexaene-11,14,17-trione] | 2 (≈ 2.92 µM)
5 | CN1C(=O)[C@H](CCCCN)NC(=O)[C@H](CCCN)NCc2ccccc2Sc2cc(C(F)(F)F)ccc2CNC(=O)[C@@H]1Cc1c[nH]c2ccccc12 [Example 13, (12S,15S,18S)-15-(4-Amino-butyl)-18-(3-amino-propyl)-12-(1H-indol-3-ylmethyl)-13-methyl-5-trifluoromethyl-2-thia-10,13,16,19-tetraaza-tricyclo[19.4.0.0*3,8*]pentacosa-1(21),3,5,7,22,24-hexaene-11,14,17-trione] | 2 (≈ 2.71 µM)
6 | CN1C(=O)[C@H](CCCCN)NC(=O)[C@H](CCCN)NCc2cccnc2Sc2ccc(Cl)cc2CNC(=O)[C@@H]1Cc1c[nH]c2ccccc12 [Example 33, (11S,14S,17S)-14-(4-Amino-butyl)-11-(3-amino-propyl)-23-chloro-17-(1H-indol-3-ylmethyl)-16-methyl-2-thia-4,10,13,16,19-pentaaza-tricyclo[19.4.0.0*3,8*]pentacosa-1(25),3,5,7,21,23-hexaene-12,15,18-trione] | 1 (≈ 1.42 µM)
7 | Cc1cccc2c1Sc1ncccc1CN[C@@H](CCCN)C(=O)N[C@@H](CCCCN)C(=O)N(C)[C@@H](Cc1c[nH]c3ccccc13)C(=O)NC2 [Example 51, (11S,14S,17S)-14-(4-Amino-butyl)-11-(3-amino-propyl)-17-(1H-indol-3-ylmethyl)-16,25-dimethyl-2-thia-4,10,13,16,19-pentaaza-tricyclo[19.4.0.0*3,8*]pentacosa-1(25),3,5,7,21,23-hexaene-12,15,18-trione] | 4 (≈ 5.84 µM)
8 | CN1C(=O)[C@H](CCCCN)NC(=O)[C@H](CCCN)NCc2ccccc2Sc2c(cccc2C(F)(F)F)CNC(=O)[C@@H]1Cc1c[nH]c2ccccc12 [Example 12, (12S,15S,18S)-15-(4-Amino-butyl)-18-(3-amino-propyl)-12-(1H-indol-3-ylmethyl)-13-methyl-4-trifluoromethyl-2-thia-10,13,16,19-tetraaza-tricyclo[19.4.0.0*3,8*]pentacosa-1(21),3,5,7,22,24-hexaene-11,14,17-trione] | 0.5 (≈ 0.678 µM)
9 | COc1ccc2c(c1)CNC(=O)[C@H](Cc1c[nH]c3ccccc13)N(C)C(=O)[C@H](CCCCN)NC(=O)[C@H](CCCN)NCc1ccccc1S2 [Example 7, (12S,15S,18S)-15-(4-Amino-butyl)-18-(3-amino-propyl)-12-(1H-indol-3-ylmethyl)-6-methoxy-13-methyl-2-thia-10,13,16,19-tetraaza-tricyclo[19.4.0.0*3,8*]pentacosa-1(21),3,5,7,22,24-hexaene-11,14,17-trione] | 0.5 (≈ 0.714 µM)

Now from value to compound:

Row | MIC [µg/mL] | SMILES
10 | 32 (≈ 47.7 µM) | CN1C(=O)[C@H](CCCCN)NC(=O)[C@H](CCCN)NCc2ccccc2Sc2cnccc2CNC(=O)[C@@H]1Cc1c[nH]c2ccccc12 [Example 63, (12S,15S,18S)-15-(4-Amino-butyl)-18-(3-amino-propyl)-12-(1H-indol-3-ylmethyl)-13-methyl-2-thia-5,10,13,16,19-pentaaza-tricyclo[19.4.0.0*3,8*]pentacosa-1(25),3,5,7,21,23-hexaene-11,14,17-trione]
11 | 4 (≈ 4.94 µM) | Cc1cc(-c2cc(Cl)c3c(c2)CNC(=O)[C@H](Cc2c[nH]c4ccccc24)N(C)C(=O)[C@H](CCCCN)NC(=O)[C@H](CCC(N)=O)NCc2cccnc2S3)ccn1 [Example 145, 3-[(11S,14S,17S)-14-(4-Amino-butyl)-25-chloro-17-(1H-indol-3-ylmethyl)-16-methyl-23-(2-methyl-pyridin-4-yl)-12,15,18-trioxo-2-thia-4,10,13,16,19-pentaaza-tricyclo[19.4.0.0*3,8*]pentacosa-1(25),3(8),4,6,21,23-hexaen-1l-yl]-propionamide]
12 | 2 (≈ 2.84 µM) | CN1C(=O)[C@H](CCCCN)NC(=O)[C@H](CCCN)NCc2ccccc2Sc2c(ccnc2Cl)CNC(=O)[C@@H]1Cc1c[nH]c2ccccc12 [Example 113, (12S,15S,18S)-15-(4-Amino-butyl)-18-(3-amino-propyl)-4-chloro-12-(1H-indol-3-ylmethyl)-13-methyl-2-thia-5,10,13,16,19-pentaaza-tricyclo[19.4.0.0*3,8*]pentacosa-1(25),3,5,7,21,23-hexaene-11,14,17-trione]
13 | 1 (≈ 1.29 µM) | CN1C(=O)[C@H](CCCCN)NC(=O)[C@H](CCCN)NCc2cccnc2Sc2c(Cl)cc(N3CCCC3)cc2CNC(=O)[C@@H]1Cc1c[nH]c2ccccc12 [Example 130, (11S,14S,17S)-14-(4-Amino-butyl)-11-(3-amino-propyl)-25-chloro-17-(1H-indol-3-ylmethyl)-16-methyl-23-pyrrolidin-1-yl-2-thia-4,10,13,16,19-pentaaza-tricyclo[19.4.0.0*3,8*]pentacosa-1(25),3(8),4,6,21,23-hexaene-12,15,18-trione]
14 | 4 (≈ 5.71 µM) | COc1ccc2c(c1)CNC(=O)[C@H](Cc1c[nH]c3ccccc13)N(C)C(=O)[C@H](CCCCN)NC(=O)[C@H](CCCN)NCc1cccnc1S2 [Example 61, (11S,14S,17S)-14-(4-Amino-butyl)-11-(3-amino-propyl)-17-(1H-indol-3-ylmethyl)-23-methoxy-16-methyl-2-thia-4,10,13,16,19-pentaaza-tricyclo[19.4.0.0*3,8*]pentacosa-1(25),3,5,7,21,23-hexaene-12,15,18-trione]
15 | 1 (≈ 1.29 µM) | CN1C(=O)[C@H](CCCCN)NC(=O)[C@H](CCCN)NCc2ncccc2Sc2c(Cl)ccc(C(F)(F)F)c2CNC(=O)[C@@H]1Cc1c[nH]c2ccccc12 [Example 111, (11S,14S,17S)-14-(4-Amino-butyl)-11-(3-amino-propyl)-25-chloro-17-(1H-indol-3-ylmethyl)-16-methyl-22-trifluoromethyl-2-thia-7,10,13,16,19-pentaaza-tricyclo[19.4.0.0*3,8*]pentacosa-1(25),3(8),4,6,21,23-hexaene-12,15,18-trione]
16 | 0.12 (≈ 0.152 µM) | Cc1[nH]c2ccccc2c1C[C@H]1C(=O)NCc2c(C(F)(F)F)ccc(Cl)c2Sc2ncccc2CN[C@@H](CCCN)C(=O)N[C@@H](CCCCN)C(=O)N1C [Example 75, (11S,14S,17S)-14-(4-Amino-butyl)-11-(3-amino-propyl)-25-chloro-16-methyl-17-(2-methyl-1H-indol-3-ylmethyl)-22-trifluoromethyl-2-thia-4,10,13,16,19-pentaaza-tricyclo[19.4.0.0*3,8*]pentacosa-1(25),3(8),4,6,21,23-hexaene-12,15,18-trione]
17 | 0.12 (≈ 0.159 µM) | Cc1[nH]c2ccccc2c1C[C@H]1C(=O)NCc2cc(Cl)cc(Cl)c2Sc2ncccc2CN[C@@H](CCCN)C(=O)N[C@@H](CCCCN)C(=O)N1C [Example 76, (11S,14S,17S)-14-(4-Amino-butyl)-11-(3-amino-propyl)-23,25-dichloro-16-methyl-17-(2-methyl-1H-indol-3-ylmethyl)-2-thia-4,10,13,16,19-pentaaza-tricyclo[19.4.0.0*3,8*]pentacosa-1(25),3(8),4,6,21,23-hexaene-12,15,18-trione]
18 | 0.25 (≈ 0.314 µM) | CN1C(=O)[C@H](CCCCN)NC(=O)[C@H](CCC(N)=O)NCc2cccnc2Sc2c(Cl)ccc(-c3cccnc3)c2CNC(=O)[C@@H]1Cc1c[nH]c2ccccc12 [Example 221, 3-[(11S,14S,17S)-14-(4-Amino-butyl)-25-chloro-17-(1H-indol-3-ylmethyl)-16-methyl-12,15,18-trioxo-22-pyridin-3-yl-2-thia-4,10,13,16,19-pentaaza-tricyclo[19.4.0.0*3,8*]pentacosa-1(25),3(8),4,6,21,23-hexaen-11-yl]-propionamide]
19 | 0.25 (≈ 0.291 µM) | CN1C(=O)[C@H](CCCCN)NC(=O)[C@H](CCCN)NCc2cccnc2Sc2c(Cl)cc(-c3ccc(S(N)(=O)=O)cc3)cc2CNC(=O)[C@@H]1Cc1c[nH]c2ccccc12 [Example 214, 4-[(11S,14S,17S)-14-(4-Amino-butyl)-11-(3-amino-propyl)-25-chloro-17-(1H-indol-3-ylmethyl)-16-methyl-12,15,18-trioxo-2-thia-4,10,13,16,19-pentaaza-tricyclo[19.4.0.0*3,8*]pentacosa-1(21),3,5,7,22,24-hexaen-23-yl]-benzenesulfonamide]

Source: patent publication US10030047B2 (Hoffmann-La Roche Inc., priority 2015, dated 2018)
